Assay results published in patent US20100234435A1, “CYCLOALKYLAMINO ACID DERIVATIVES” (priority 2007, published 2010).
pIC50, pKi: −log10 of the molar value. Structures can show the parent of a compound that is named as a salt.

Tests used:
S1P1 = biological target: T1, S1P1 (Homo sapiens, UniProt P21453); test: Radioligand binding assay, 33P-S1P labelled S1P1 receptor; details: 33P-S1P labelled receptors
T1 construct: expressed in transfected cells; membranes
Experimental: (§1) HEK293 or CHO cells expressing S1P1-5, are prepared in ˜0.5×10^5 cells/well. Cells are plated into each well of a 6-well plate in 2 ml of growth media (OptiMEM, Invitrogen). Two micrograms receptor plasmid DNA is mixed in 200 ul OptiMEM, and combined with 6 ul Lipofectamine (2000-9, Invitrogen). The mixture is added drop wise to 2 ml of growth media covering the cells in each well. The cells are allowed to transfect for 8-18 hours at room temperature. The OptiMEM transfection medium is replaced with 2 ml fresh serum-containing medium an incubated for 48 hours. The cells are diluted 1:10 in selection media (OptiMEM. Invitrogen) containing 0.8 mg/ml G418 in 10 cm dishes. Colonies are allowed to form (˜1-2 weeks), and 12 colonies from each dish are independently harvested with cloning disks and placed into 24-well plates.
(§2) Cell membranes from CHO-S1P1-5 or HEK-S1P1-5 transfected cells are prepared by homogenizing the cells in an ice cold solution containing 25 mM Tris, 5 mM EDTA, 5 mM EGTA, and Complete Protease Inhibitor Cocktail, EDTA-Free (Roche #1 873 580). Cells are lysed by dounce homogenization and centrifugation at 20,000×g for 20 minutes at 4° C. Membrane pellets are resuspended in the same buffer and centrifuged again at 20,000×g for 20 minutes at 4° C. Final membrane pellet is resuspended in 20 mM HEPES, pH 7.5, 5 mM MgCl2, 1 mM CaCl2. Protein concentration is determined using the Micro BCA protein assay (Pierce #23235).
(§3) Serial dilutions of test compounds in DMSO are prepared in 96 well polypropylene plates. Using the FX robot 1:50 intermediate dilutions are made to assay buffer (20 mM HEPES, pH 7.5, 5 mM MgCl2, 1 mM CaCl2, 4 mg/ml fatty-acid free BSA). This intermediate is further diluted 1:10 to the final assay reaction. Final DMSO concentration in the reaction is 0.2%. Final reaction contains 50 pM ^33P-S1P (Perkin Elmer; Special Order), and 2.5 μg of cell membranes. The reaction is incubated at room temperature for 30 minutes and stopped by filtration through GF/B UniFilter Plates (Perkin Elmer #6005177) and washed four times with wash buffer containing 50 mM Tris pH 7.4, 0.025% Tween-20. The filter plates are dried for approximately 20 minutes in an oven at 50° C. Back seals are adhered to the filter plates and 40 μl of Microscint-20 scintillation fluid is added (Perkin Elmer #6013621). The filter plates are sealed, shaken for 30 minutes at room temperature, and counted on a Top Count (PerkinElmer).

S1P3 = biological target: T2, S1P3 (Homo sapiens, UniProt Q99500); test: Radioligand binding assay, 33P-S1P labelled S1P3 receptor; details: 33P-S1P labelled receptors
T2 construct: expressed in transfected cells; membranes
T2 sequence (Q99500 whole entry): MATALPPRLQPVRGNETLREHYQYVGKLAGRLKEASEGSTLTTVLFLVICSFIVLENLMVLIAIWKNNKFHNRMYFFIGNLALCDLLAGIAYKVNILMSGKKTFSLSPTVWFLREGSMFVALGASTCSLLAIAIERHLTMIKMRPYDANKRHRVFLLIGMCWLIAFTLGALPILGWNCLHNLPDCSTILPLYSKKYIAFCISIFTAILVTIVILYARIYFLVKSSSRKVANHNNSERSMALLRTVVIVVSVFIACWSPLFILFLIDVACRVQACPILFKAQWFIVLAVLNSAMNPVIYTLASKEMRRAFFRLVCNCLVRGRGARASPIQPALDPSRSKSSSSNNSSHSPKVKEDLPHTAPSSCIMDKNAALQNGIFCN
Experimental: as §1, §2, §3

S1P4 = biological target: T3, S1P4 (Homo sapiens, UniProt O95977); test: Radioligand binding assay, 33P-S1P labelled S1P4 receptor; details: 33P-S1P labelled receptors
T3 construct: expressed in transfected cells; membranes
T3 sequence (O95977 1-384): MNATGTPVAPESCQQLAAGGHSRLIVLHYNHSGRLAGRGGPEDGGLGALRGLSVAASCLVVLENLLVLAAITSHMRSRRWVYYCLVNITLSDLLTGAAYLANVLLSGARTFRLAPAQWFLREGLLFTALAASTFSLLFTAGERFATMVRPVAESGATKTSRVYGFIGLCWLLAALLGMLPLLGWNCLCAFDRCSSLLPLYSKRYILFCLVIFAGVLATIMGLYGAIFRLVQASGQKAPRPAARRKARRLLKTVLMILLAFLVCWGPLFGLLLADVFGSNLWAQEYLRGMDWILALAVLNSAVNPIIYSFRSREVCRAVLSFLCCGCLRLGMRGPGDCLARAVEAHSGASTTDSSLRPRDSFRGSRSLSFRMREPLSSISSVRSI
Experimental: as §1, §2, §3

S1P2 = biological target: T4, S1P2 (Homo sapiens, UniProt O95136); test: Radioligand binding assay, 33P-S1P labelled S1P2 receptor; details: 33P-S1P labelled receptors
T4 construct: expressed in transfected cells; membranes
T4 sequence (O95136 whole entry): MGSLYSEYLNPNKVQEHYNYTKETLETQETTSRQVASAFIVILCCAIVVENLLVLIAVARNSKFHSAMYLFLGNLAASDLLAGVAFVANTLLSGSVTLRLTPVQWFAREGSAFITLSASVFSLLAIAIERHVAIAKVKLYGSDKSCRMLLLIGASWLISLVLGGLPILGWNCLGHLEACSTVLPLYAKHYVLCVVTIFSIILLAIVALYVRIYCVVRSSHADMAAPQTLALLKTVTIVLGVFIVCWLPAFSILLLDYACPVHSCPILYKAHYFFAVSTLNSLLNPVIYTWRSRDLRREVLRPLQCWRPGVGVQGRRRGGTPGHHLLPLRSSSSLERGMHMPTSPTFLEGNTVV
Experimental: as §1, §2
(§4) Serial dilutions of test compounds in DMSO are prepared in 96 well polypropylene plates. Using the FX robot 1:50 intermediate dilutions are made to assay buffer (20 mM HEPES, pH 7.5, 5 mM MgCl2, 1 mM CaCl2, 4 mg/ml fatty-acid free BSA). This intermediate is further diluted 1:10 to the final assay reaction. Final DMSO concentration in the reaction is 0.2%. […] The filter plates are sealed, shaken for 30 minutes at room temperature, and counted on a Top Count (PerkinElmer).

S1P5 = biological target: T5, S1P5 (Homo sapiens, UniProt Q9H228); test: Radioligand binding assay, 33P-S1P labelled S1P5 receptor; details: 33P-S1P labelled receptors
T5 construct: expressed in transfected cells; membranes
T5 sequence (Q9H228 whole entry): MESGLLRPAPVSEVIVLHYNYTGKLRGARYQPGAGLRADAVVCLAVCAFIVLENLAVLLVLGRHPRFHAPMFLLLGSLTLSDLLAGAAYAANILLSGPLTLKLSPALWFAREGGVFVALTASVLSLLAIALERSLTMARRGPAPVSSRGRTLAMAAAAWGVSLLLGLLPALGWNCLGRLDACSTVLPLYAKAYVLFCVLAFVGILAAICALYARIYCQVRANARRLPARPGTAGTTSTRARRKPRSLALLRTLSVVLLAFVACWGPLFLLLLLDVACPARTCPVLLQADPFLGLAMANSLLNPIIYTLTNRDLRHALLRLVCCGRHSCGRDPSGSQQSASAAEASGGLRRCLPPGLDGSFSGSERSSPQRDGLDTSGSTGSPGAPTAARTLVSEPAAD
Experimental: as §1, §2, §4

[1] = Terminal half life and clearance from blood samples; assay type: in vivo, CD1 mice; details: CD1, mouse, oral; for clearance: read-out: Cl (ml/min/kg) (clearance)
Excerpt: Agonium of S1P1 results in S1P1 internalization, inhibiting lymphocyte egress into circulation, and is clinically presented as lymphopenia (Chiba, Pharmacology & Therapeutics 2005; 108,308-319, 2005). The following protocol may be used to assess the potential induction of lymphopenia for the test compounds when administered as a single oral dose to CD1 mice.
A suspension of 5% Gelucire may be used as the vehicle to prepare dosing formulations and to dose vehicle control animals. Test compound is weighed and transferred to a 15 mL Falcon tube or equivalent to make stock formulations. The appropriate amount of 5% Gelucire vehicle is then added to the tube. The resulting formulation is sonicated with a probe sonicator until no obvious particulate matter is apparent. About 500 mL Gelucire (Gattefosse, St-Priest, Cedex, France) is melted in a 1000 W microwave oven set for 3 minutes on high power. The appropriate amount of Gelucire is added to deionized water to form 5% (vol/vol) aqueous Gelucire.
Blood samples (˜0.6-0.8 mL) may be collected via intracardiac puncture at appropriate time points. The mice are anesthetized by carbon dioxide and euthanized via exanguination by intracardiac puncture. Blood samples are obtained and placed in tubes containing EDTA. Lymphocytes (L, %) count is measured with Abbott Cell-Dyn 3700 automated analyzer.
Samples of blood were taken to determine terminal half life (T½) and clearance of the compounds, using well accepted methods for such assays.

T1 sequence (P21453 whole entry): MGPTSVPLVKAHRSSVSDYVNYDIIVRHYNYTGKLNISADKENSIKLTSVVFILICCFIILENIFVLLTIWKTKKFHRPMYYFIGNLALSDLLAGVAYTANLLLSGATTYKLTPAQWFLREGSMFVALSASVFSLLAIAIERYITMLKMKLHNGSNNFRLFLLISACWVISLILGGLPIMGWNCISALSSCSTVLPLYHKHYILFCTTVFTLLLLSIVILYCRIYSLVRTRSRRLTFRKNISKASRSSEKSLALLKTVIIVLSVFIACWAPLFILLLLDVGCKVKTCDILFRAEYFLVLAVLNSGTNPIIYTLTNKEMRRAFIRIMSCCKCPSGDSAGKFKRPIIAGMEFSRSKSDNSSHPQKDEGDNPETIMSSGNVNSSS

Row | pKi (S1P1) | pIC50 (S1P3) | pIC50 (S1P4) | pIC50 (S1P2) | pIC50 (S1P5) | half-life [1] [h] | clearance [1] [mL/min/kg] | SMILES
1 | 9.80 | 8.15 | 7.82 |  |  |  |  | CCCCCCCCCCCCC/C=C/[C@@H](O)[C@@H](N)COP(=O)(O)O [Example S1P, sphingosine-1-phosphate, reference compound]
2 | 8.57 | < 6.00 | 6.48 | < 6.00 | 7.96 | 6.7 | 5.11 | CC(C)Cc1ccc(-c2nc(-c3ccc([C@H](C)N[C@H]4C[C@@H](C(=O)O)C4)cc3)no2)cc1 [cis-3-{[(1S)-1-{4-[5-(4-isobutylphenyl)-1,2,4-oxadiazol-3-yl]phenyl}ethyl]amino}cyclobutanecarboxylic acid, hydrochloride salt]
3 | 8.34 | < 6.00 | 6.36 | < 6.00 | 7.82 |  |  | CC(C)Cc1ccc(-c2nc(-c3ccc([C@@H](C)N[C@H]4C[C@H](C(=O)O)C4)cc3)no2)cc1 [trans-3-{[(1R)-1-{-4-[5-(4-Isobutylphenyl)-1-1,2,4-oxadiazol-3-yl]phenyl}ethyl]amino}cyclobutanecarboxylic acid]
4 | 9.54 | < 6.00 | 7.46 | < 6.00 | 8.54 | 5.2 | 6 | CC(C)Cc1ccc(-c2nc(-c3ccc([C@@H](C)N[C@H]4C[C@@H](C(=O)O)C4)cc3)no2)cc1 [cis-3-{[(1R)-1-{4-[5-(4-Isobutylphenyl)-1,2,4-oxadiazol-3-yl]phenyl}ethyl]amino}cyclobutanecarboxylic acid]
